This note sets out measurements from ChEMBL document CHEMBL1141488, “Modifying the glycosidic linkage in digitoxin analogs provides selective cytotoxins” (Bioorg Med Chem Lett, 2008).

Experiment [1] concerns HT-29. The experiment is described as follows: Cytotoxicity against human HT29 cells. It counts as functional, cell-based.
Experiment [2] has as its system NCI/ADR-RES. The experiment is described as follows: Cytotoxicity against human NCI/ADR-RES cells. The experiment is classed as functional, cell-based.

As a reminder, the IC50 is the midpoint of a concentration-inhibition curve. Regarding `C[C@]12CC[C@H](N(OCc3ccccc3)OC3OC[C@H](O)[C@@H](O)[C@@H]3O)C[C@H]1CC[C@@H]1[C@@H]2CC[C@]2(C)[C@@H](C3=CC(=O)OC3)CC[C@]12O` (stereo partly drawn), the half-maximal inhibitory concentration (IC50) in experiment [1] is above 1000 nM. `CC(C)ON(OC1OC[C@H](O)[C@@H](O)[C@@H]1O)[C@H]1CC[C@@]2(C)[C@H](CC[C@@H]3[C@@H]2CC[C@]2(C)[C@@H](C4=CC(=O)OC4)CC[C@]32O)C1` (stereo partly drawn): in experiment [2], the half-maximal inhibitory concentration (IC50) worked out at 120 nM. Still for that read-out and setting: for `CC(C)ON(OC1OC[C@H](O)[C@H](O)[C@@H]1O)[C@H]1CC[C@@]2(C)[C@H](CC[C@@H]3[C@@H]2CC[C@]2(C)[C@@H](C4=CC(=O)OC4)CC[C@]32O)C1` (stereo partly drawn) the value was 110 nM.
